Laboratory results reported in patent publication US20220170930A1, “METHOD FOR SCREENING COMPOUND FOR TREATING OR PREVENTING POLYQ-RELATED NEURODEGENERATIVE DISEASES” (FUDAN UNIVERSITY, priority 2019, published 2022).
pKd: −log10 of the molar value.

Key:
[1] = molecular target: T1, binding between HTTexon1-Q72-MBP and LC3B (Homo sapiens, UniProt P42858+Q9GZQ8, INS38QQQQQQQQQQQQQQQQQQQQQQQQQQQQQQQQQQQQQQQQQQQQQQQQQQQ); experiment: In vitro pull-down HTTexon1-Q72-MBP and LC3B; format: biochemical; conditions: 1 μM compound 1 or 100 nM compound 4
T1 construct: His8 (N, cleaved yes); GST (from pGEX-6P1) (N, cleaved yes); made in house; LC3B: E. coli BL21(DE3)pLsyS
T1 sequence (P42858 other isoform, or with tags, fused parts or gaps with the stated changes): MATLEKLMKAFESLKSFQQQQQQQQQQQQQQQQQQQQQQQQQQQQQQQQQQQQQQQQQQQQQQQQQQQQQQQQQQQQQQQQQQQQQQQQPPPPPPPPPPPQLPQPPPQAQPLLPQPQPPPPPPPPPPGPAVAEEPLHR
Description: Incubation was conducted. Then the unbound proteins were removed.
(3) The resin-bound proteins were eluted and analyzed by SDS-PAGE and Western-blots with anti-LC3 antibody (FIG. 22a).

Q38-GFP = experiment: OI-RD affinity reaction parameters with Q38-GFP; format: binding
Excerpt: (§1) (1) PolyQ-GFP cDNA sequence (expressing Met-polyQ-GFP, wherein polyQ was Q72 or Q25) was synthesized de novo and subcloned into pcDNA vector. […] And the same method was used to obtain cells expressing Q53-GFP, cells expressing Q46-GFP, and cells expressing Q38-GFP.

mHTT = experiment: Western-blot mHTT level in primary cultured cortical neurons; format: cell-based, mouse; conditions: 2 days
Description: (§2) Primary cultured cortical neurons: The brains of Hdh^Q140/Q7 and Hdh^Q7/Q7 newborn mice (P0) were dissected, digested, dissociated, and cultured.
(§3) (1) The primary cultured Hdh^Q140/Q7 and Hdh^Q7/Q7 mouse cortical neuron cells were treated with the compound for 2 days.

Q72-GFP [2] = experiment: MST affinity with Q72-GFP
Description: (§4) The affinity of the compound with full-length HTT and LC3B was verified with micro thermophoresis (MST) using Monolith NT.115 instrument from NanoTemper Technologies. The reaction buffer was 20 mM HEPES, pH 7.4, 150 mM NaCl.

His-ATXN1-Q92 = molecular target: T2, His-ATXN1-Q92 (Homo sapiens, UniProt P54253, INS208QQQQQQQQQQQQQQQQQQQQQQQQQQQQQQQQQQQQQQQQQQQQQQQQQQQQQQQQQQQQQQQQQQQQQQQQQQQQQQQQ); experiment: OI-RD affinity screening with His-ATXN1-Q92; format: binding; conditions: OI-RD difference images
T2 construct: made in house; host or cells: HEK293T cells (ATCC, CRL-3216)
T2 sequence (P54253 with tags, fused parts or gaps with the stated changes): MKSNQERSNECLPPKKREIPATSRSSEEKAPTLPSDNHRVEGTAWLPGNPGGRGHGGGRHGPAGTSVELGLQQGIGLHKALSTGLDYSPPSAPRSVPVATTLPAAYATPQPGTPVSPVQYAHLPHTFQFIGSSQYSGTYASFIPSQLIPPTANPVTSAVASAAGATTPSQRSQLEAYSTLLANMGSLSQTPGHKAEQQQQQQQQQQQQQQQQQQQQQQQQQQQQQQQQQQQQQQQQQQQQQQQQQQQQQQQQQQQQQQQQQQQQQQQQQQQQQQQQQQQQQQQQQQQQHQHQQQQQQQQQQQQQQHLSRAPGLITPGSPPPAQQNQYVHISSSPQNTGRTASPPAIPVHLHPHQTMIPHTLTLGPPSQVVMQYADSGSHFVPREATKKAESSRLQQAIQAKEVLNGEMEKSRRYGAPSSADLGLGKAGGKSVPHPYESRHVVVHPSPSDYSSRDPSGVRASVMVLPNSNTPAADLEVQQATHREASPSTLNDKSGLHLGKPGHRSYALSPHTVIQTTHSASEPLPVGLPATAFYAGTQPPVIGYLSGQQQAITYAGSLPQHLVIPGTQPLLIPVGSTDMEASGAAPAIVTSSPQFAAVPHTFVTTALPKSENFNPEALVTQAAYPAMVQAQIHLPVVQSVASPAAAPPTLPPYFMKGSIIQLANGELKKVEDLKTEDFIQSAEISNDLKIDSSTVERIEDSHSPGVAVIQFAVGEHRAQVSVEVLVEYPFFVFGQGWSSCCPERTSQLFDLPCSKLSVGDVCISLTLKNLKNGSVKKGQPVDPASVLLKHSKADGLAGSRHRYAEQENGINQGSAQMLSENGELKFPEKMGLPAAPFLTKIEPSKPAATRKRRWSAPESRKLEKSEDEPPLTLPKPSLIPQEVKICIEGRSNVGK
Description: (1) PolyQ-ATXN1 cDNA (where polyQ is Q92) was synthesized de novo and subcloned into pcDNA vector. It transfected into HEK293T cells (ATCC, CRL-3216) to obtain cells expressing His-ATXN1-Q92 (SEQ ID NO: 3 with a His tag at the N-terminal).
(2) The His-ATXN1-Q92 expressed in (1) was purified to obtain ATXN1 with abnormally expanded polyQ.
To identify compound(s) that can bind to ATXN1 with abnormally expanded polyQ, screening was conducted using a method similar to step (1) of 1.1, except for that the target protein HTTexon1-Q72-MBP in step (1) of 1.1 was replaced with His-ATXN1-Q92.

in vivo = conditions: mouse, ip, 0.5 mg/kg
Description: Experimental method: The compound or control DMSO was diluted with 0.9% NaCl intravenous infusion solution to 0.05 μg/μL. One ip-injection (0.5 mg/kg) was conducted per day. After 14 days of injection, tissue extraction or behavioral experiment were conducted.

wtHTT = molecular target: T3, wtHTT (Mus musculus, UniProt P42859); experiment: Western-blot wtHTT level in primary cultured cortical neurons; format: cell-based; conditions: Hdh^Q7/Q7 cortical neurons, 2 days
T3 construct: endogenous in cells; host or cells: primary cortical neurons of newborn Hdh Q140/Q7 and Hdh Q7/Q7 mice
T3 sequence (P42859 whole entry): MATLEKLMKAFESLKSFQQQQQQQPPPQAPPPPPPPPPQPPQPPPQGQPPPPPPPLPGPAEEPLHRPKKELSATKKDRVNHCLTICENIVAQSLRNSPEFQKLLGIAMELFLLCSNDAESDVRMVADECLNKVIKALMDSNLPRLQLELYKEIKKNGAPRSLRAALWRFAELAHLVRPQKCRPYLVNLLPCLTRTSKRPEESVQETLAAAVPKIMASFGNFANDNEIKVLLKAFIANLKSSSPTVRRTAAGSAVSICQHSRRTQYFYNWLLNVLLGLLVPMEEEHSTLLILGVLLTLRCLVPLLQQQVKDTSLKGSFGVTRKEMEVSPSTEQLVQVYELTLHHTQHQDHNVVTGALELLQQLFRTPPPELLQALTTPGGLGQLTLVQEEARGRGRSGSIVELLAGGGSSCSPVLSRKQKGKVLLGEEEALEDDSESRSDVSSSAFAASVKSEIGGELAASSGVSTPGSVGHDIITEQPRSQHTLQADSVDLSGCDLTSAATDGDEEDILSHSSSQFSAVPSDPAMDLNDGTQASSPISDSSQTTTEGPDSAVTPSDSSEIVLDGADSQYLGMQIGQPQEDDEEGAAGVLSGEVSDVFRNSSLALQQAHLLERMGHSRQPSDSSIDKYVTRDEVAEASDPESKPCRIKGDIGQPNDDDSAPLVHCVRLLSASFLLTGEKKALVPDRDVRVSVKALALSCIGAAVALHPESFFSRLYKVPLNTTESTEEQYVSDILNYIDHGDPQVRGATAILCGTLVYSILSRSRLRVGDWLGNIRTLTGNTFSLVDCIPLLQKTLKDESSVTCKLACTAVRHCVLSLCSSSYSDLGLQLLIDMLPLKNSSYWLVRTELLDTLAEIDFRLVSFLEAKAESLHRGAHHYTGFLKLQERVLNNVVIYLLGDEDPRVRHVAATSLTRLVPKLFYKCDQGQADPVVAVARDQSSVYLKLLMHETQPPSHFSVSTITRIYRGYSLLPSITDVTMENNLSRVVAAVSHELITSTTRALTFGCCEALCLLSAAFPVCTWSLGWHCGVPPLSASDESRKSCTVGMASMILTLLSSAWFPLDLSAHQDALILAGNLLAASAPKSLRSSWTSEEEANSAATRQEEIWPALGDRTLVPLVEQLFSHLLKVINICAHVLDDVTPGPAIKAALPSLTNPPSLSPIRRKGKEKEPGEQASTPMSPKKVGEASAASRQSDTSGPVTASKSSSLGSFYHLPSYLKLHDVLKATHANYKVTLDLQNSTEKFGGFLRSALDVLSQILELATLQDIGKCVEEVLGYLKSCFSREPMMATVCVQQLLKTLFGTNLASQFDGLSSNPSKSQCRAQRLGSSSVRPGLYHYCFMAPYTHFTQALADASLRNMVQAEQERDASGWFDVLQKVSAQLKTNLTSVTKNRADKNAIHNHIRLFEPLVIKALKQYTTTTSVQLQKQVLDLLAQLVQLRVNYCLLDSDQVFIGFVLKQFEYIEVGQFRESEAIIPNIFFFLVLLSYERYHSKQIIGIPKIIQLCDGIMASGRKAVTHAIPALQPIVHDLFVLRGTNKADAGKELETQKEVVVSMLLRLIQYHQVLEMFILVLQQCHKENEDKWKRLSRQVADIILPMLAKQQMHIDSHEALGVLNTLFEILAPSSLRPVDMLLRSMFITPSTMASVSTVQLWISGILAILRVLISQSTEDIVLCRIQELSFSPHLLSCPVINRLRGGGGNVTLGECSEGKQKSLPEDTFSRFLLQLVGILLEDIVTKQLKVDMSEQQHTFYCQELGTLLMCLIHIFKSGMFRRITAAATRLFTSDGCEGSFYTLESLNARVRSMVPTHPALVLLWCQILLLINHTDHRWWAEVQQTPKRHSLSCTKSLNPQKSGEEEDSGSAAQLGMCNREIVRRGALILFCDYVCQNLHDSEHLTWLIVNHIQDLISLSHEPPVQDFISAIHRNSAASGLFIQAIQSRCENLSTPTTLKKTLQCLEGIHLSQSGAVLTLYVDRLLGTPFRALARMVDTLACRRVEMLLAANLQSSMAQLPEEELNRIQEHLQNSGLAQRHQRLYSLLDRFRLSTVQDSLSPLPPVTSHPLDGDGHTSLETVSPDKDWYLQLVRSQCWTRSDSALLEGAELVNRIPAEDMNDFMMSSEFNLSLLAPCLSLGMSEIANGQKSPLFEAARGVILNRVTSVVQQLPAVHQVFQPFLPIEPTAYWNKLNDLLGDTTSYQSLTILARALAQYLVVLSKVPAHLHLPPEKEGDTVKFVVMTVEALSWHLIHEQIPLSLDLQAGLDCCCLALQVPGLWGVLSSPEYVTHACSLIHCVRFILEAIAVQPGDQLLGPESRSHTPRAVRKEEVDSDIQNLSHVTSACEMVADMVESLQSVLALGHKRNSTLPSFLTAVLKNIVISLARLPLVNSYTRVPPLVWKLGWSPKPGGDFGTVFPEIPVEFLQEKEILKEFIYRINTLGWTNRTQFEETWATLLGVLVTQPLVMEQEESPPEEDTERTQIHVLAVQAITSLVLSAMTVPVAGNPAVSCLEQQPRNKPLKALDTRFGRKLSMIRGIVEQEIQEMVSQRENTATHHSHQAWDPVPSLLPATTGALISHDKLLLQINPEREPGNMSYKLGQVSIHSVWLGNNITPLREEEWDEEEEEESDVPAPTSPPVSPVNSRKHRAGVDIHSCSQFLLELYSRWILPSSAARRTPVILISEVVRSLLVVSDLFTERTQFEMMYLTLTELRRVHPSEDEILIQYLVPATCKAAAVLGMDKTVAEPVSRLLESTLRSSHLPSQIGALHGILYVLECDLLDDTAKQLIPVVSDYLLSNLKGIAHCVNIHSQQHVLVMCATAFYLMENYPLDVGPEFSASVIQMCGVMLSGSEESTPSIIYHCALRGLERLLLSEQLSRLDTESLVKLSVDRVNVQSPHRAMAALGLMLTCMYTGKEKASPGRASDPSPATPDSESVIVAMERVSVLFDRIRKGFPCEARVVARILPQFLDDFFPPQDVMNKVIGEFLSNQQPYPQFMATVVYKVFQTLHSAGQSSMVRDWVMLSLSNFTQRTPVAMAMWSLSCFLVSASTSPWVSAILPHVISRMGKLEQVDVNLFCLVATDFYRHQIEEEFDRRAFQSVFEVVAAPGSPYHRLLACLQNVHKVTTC
Description: as §2, §3

Q25-GFP [3] = experiment: OI-RD affinity screening with Q25-GFP; format: binding; conditions: OI-RD difference images
Excerpt: as §1

MBP-ATXN3-Q68 [4] = molecular target: T4, MBP-ATXN3-Q68 (Homo sapiens, UniProt P54252, INS305QQQQQQQQQQQQQQQQQQQQQQQQQQQQQQQQQQQQQQQQQQQQQQQQQQQQQQQQQQ); experiment: MST affinity with MBP-ATXN3-Q68
T4 sequence (P54252 with tags, fused parts or gaps isoform P54252-4 with the stated changes): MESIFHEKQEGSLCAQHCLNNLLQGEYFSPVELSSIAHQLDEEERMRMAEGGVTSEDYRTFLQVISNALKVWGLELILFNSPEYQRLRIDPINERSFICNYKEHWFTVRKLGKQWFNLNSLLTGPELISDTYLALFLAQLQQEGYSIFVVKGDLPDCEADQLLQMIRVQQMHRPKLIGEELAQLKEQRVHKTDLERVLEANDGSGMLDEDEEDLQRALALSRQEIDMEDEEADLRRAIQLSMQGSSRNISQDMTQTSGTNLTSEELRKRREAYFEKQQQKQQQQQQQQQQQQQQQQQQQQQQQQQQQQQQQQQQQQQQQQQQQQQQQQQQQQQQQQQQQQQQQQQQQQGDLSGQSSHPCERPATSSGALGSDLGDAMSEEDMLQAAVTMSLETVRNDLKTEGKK
Description: as §4

MBP-ATXN3-Q68 [5] = molecular target: T4, MBP-ATXN3-Q68; experiment: OI-RD affinity screening with MBP-ATXN3-Q68; format: binding; parameters: His8 with TEV protease cleavage site; made in house; host or cells: Escherichia coli Rosetta(DE3)pLsyS; conditions: OI-RD difference images
Description: Screening was conducted using a method similar to 1.1, except for that the target protein HTTexon1-Q72-MBP in step (1) of 1.1 was replaced with MBP-ATXN3-Q68 and the target protein HTTexon1-Q25-MBP in step (2) of 1.1 was replaced with MBP-ATXN3-Q28, to obtain compounds that can selectively bind to ATXN3 with abnormally expanded polyQ (MBP-ATXN3-Q68).

Q72-GFP [6] = experiment: OI-RD affinity reaction parameters with Q72-GFP; format: binding
Excerpt: as §1

Q25-GFP [7] = experiment: MST affinity with Q25-GFP
Description: as §4

[8] = molecular target: T5, wild-type ATXN3 protein (ATXN3-Q27) (Homo sapiens, UniProt P54252, G306R/INS305QQQQQQQQQQQQQQQQQ/V212M); experiment: Western-blot wild-type ATXN3 level in fibroblasts; format: cell-based; conditions: 100 nM (compound 4: 50 nM), 2 days
T5 construct: endogenous in cells; host or cells: wild-type fibroblasts (Q27) and/or the normal allele in SCA3 patient fibroblasts
T5 sequence (P54252 with tags, fused parts or gaps isoform P54252-1 with the stated changes): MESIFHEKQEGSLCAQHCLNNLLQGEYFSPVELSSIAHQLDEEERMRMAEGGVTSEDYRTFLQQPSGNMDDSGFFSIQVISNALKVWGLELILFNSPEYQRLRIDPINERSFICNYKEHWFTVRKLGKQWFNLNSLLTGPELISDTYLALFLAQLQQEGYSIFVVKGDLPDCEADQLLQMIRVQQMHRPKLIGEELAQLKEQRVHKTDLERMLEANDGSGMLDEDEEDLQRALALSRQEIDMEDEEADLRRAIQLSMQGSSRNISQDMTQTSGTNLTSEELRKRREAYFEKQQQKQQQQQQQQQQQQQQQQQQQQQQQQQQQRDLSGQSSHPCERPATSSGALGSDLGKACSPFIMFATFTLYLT
Description: Then the levels of mutant ATXN3 protein (ATXN3-Q74, SEQ ID NO: 2) and wild-type ATXN3 protein (ATXN3-Q27, SEQ ID NO: 7) were determined by Western-blots (FIG. 26). […] Therefore, the compound of the present invention can be used to treat SCA3.

LC3B [9] = molecular target: T6, LC3B (Homo sapiens, UniProt Q9GZQ8); experiment: MST affinity with LC3B; format: binding; conditions: MST, LC3B, protein 500 nM; read-out: Kd
T6 construct: His8 (N, cleaved yes); GST (from pGEX-6P1) (N, cleaved yes); made in house; host or cells: E. coli BL21(DE3)pLsyS

LC3B [10] = molecular target: T6, LC3B; experiment: OI-RD affinity with LC3B; format: binding
Description: 01-RD images before and after incubation with the target protein was obtained following the method in (1).
The difference images of the above steps (1), (2), (3) (the image after incubation minus the image before incubation) was analyzed respectively.
Each compound was printed in triplicates on the microarray. 01-RD was used to measure the affinity reaction parameters of the compound with LC3B, full-length mHTT (flHTT-Q73) and full-length HTT-Q23 (flHTT-Q23).

Q53-GFP = experiment: OI-RD affinity reaction parameters with Q53-GFP; format: binding
Excerpt: as §1

## O=C1Nc2ccc(I)cc2/C1=C/c1cc(Br)c(O)c(Br)c1 [compound 1, GW5074]
[1]
  binding between HTTexon1-Q72-MBP and LC3B: could enhance the binding
Q38-GFP
  pKd: 5.72
  Koff: 0.000338 s⁻¹
  Kon: 1.06e-05 min/nM
mHTT
  concentration range in which the effect of selectively reducing mHTT levels was observed: 30 to 300 nM
  preferred concentration for selectively reducing mHTT levels: 100 nM
Q72-GFP [2]
  pKd: 5.52
His-ATXN1-Q92
  binding to His-ATXN1-Q92: can bind
In vivo
  concentration at 2 h: 81 ng/g
wtHTT
  wtHTT levels: did not reduce wtHTT levels
Q25-GFP [3]
  binding to Q25-GFP: did not bind
MBP-ATXN3-Q68 [4]
  pKd: 5.20
MBP-ATXN3-Q68 [5]
  binding to MBP-ATXN3-Q68: binded
Q72-GFP [6]
  pKd: 6.74
  Koff: 0.000252 s⁻¹
  Kon: 8.37e-05 min/nM
Q25-GFP [7]
  binding affinity to Q25-GFP: no binding affinity
[8]
  wild-type ATXN3 protein level: no decrease in wild-type ATXN3 protein level was observed
LC3B [9]
  pKd: 5.32
LC3B [10]; OI-RD difference images
  binding to LC3B: can bind
LC3B [10]; OI-RD, LC3B
  Koff: 0.00029 s⁻¹
  Kon: 3.72e-05 min/nM
LC3B [10]; OI-RD, LC3B, read-out: Kd
  pKd: 6.33
Q53-GFP
  pKd: 7.60
  Koff: 6.3e-05 s⁻¹
  Kon: 0.000151 min/nM
